≈ marks a conversion by molar mass, not a printed value. Like-named read-outs stand apart in the source and are kept apart here.

The subject of data set [1] is Trichophyton rubrum NCPF118. Nature of the data set: Antifungal activity, growth in RPMI 1640 microtitre plates (OD 530 nm). The note with it: for MIC: T. rubrum NCPF118, 30° C. Type of data set: cell-based. The procedure: (§1) Esculin, esculetin and a range of other coumarins and their glycosides were tested for their antifungal activity against Trichophyton rubrum, Trichophyton interdigitale and other fungi isolated from nails and skin.
(§2) Suspensions of fungal conidia and hyphal fragments for use as experimental inocula were prepared by adding 3 ml of demineralised water or 0.15% (w/v) NaCl solution to a slope culture which had been incubated at 30° C. for 7 to 10 days and probing the surface of the culture with a sterile plastic transfer pipette. […] The resulting suspension was filtered through a double layer of sterile surgical gauze; if necessary a further volume of up to 3 ml of water or 0.15% (w/v) NaCl was used to wash through any spores or small hyphal fragments held on the gauze. 100 μl of this suspension, adjusted to an optical density between 0.14 and 0.16 at 530 nm (corresponding to between 0.5 and 1.5×10^6 propagules/ml) was added to the wells in sterile 96-well microtitre plates to which 100 μl of 2× strength RPMI 1640 media (a chemically-defined nutrient medium widely used in tissue culture and antimicrobial resistance testing) had been added. Inocula prepared in this way were used in all of the experiments; additionally, for some experiments with esculin shown in FIG. 4, the results obtained with standard inocula prepared as described above (labelled “young inoculum” in FIG. 4), were compared with the results obtained in similar tests using inocula which had been cultured for up to 9 weeks (labelled “old inoculum” in FIG. 4). As appropriate, coumarins were pre-dissolved in 2× strength RPMI 1640 medium before addition to the plate. Experiments with the yeasts Candida albicans and Candida krusei were set up in the same way, but in these cases, filtration of the cell suspensions was not necessary.
(§3) Solubilisation of other compounds required the presence of DMSO. Esculetin, daphnetin, 4-(trifluoromethyl) coumarin, 4-(trifluoromethyl)-coumarin-7-0-glucose and cichoriin were dissolved in DMSO at 1000× final test concentration; when this solution was diluted to the concentration used in the experiments using 2× strength RPMI 1640 medium, the final concentration of DMSO was […] which alone had no effect on the fungi when tested in several experiments performed. Fraxetin required a final concentration of 0.2% DMSO, but this too had no effect on the growth of the fungi when tested in separate experiments.
(§4) A series of dilutions of the coumarin solutions was prepared on the plates by mixing known volumes of the coumarin stock solutions in the wells with fresh volumes of 2×RPMI 1640 medium. Each concentration of coumarin was studied in triplicate wells. For observations on Trichophyton rubrum NCPF118 and Trichophyton interdigitale NCPF335, obtained from the National Collection of Pathogenic Fungi (Bristol), the plates were incubated in a Bio-Tek Powerwave XS scanning plate reader at 30° C., and fungal growth within the plates was measured at intervals of 2 h for up to 72 h or 96 h as specified in the text by recording the absorbance (optical density) of the wells at 530 nm. Observations on Candida albicans and Candida krusei were made in the same way, but the incubation temperature was 37° C. and the incubation time was 48 h. For observations with clinical fungal isolates obtained from the collection of M. Monod (Lausanne, Switzerland), the procedure was as described above except that in response to the relatively slow growth of these isolates, incubations were performed in a static incubator at 30° C. and the plates were read manually in a Bio-Tek Powerwave XS scanning plate reader at intervals of 24 h for up to 168 h, being returned to the incubator after each reading. Malassezia furfur grows poorly in the system described above, so for this organism, a standard inoculum of M. furfur was mixed with an equal volume of a solution of esculetin and the mixture was plated onto Petri dishes containing Sabouraud's agar medium. […]

Data set [2] can be described thus: Solubility of coumarins in RPMI 1640 media and DMSO. The note with it: for DMSO Concentration: DMSO present for the stated solubility in RPMI 1640; for solubility: aqueous buffer, kinetic from dmso stock, pH = 7.0, in presence of the DMSO concentration of the same table line. Type of data set: physicochemical. On the procedure:
The solubility of the aglycones was compared to the respective glycoside in RPMI 1640 media and in DMSO.
as §3

Data set [3] deals with Trichophyton interdigitale NCPF335. Nature of the data set: Antifungal activity, growth in RPMI 1640 microtitre plates (OD 530 nm). It is filed as cell-based. On the procedure: as §1, §2, §3, §4
In data set [4] the test system is Candida albicans, Cryptococcus neoformans, Saccharomyces cerevisiae and Aspergillus niger. Particulars: Sardari et al, Bioorg. Med. Chem. 7, 1999; cited from earlier work.
The mark [5] stands for this setting: Trichophyton rubrum, read-out: MIC.
[6] abbreviates: old inoculum (cultured up to 9 weeks) versus young inoculum, FIG. 4.

The term MIC denotes the lowest concentration that inhibits growth of the organism. Turning to `Cc1cc(=O)oc2cc(O)c(O)cc12` [4 methyl esculetin], the MIC in data set [1] came to 1000 µM (≈ 192 µg/mL).
As usually defined, the solubility is the concentration that dissolves in the medium under given conditions. Take `O=c1cc(C(F)(F)F)c2ccc(O)cc2o1` [4-(trifluoromethyl)coumarin, 7-hydroxy-4-(trifluoromethyl)coumarin]: the minimum inhibitory concentration (MIC) in data set [1] (setting [5]) worked out at 1000 µM (≈ 230 µg/mL). In addition, in data set [1] (at concentrations of 1-2 mM, FIG. 6), the “activity of halogenated coumarin aglycone versus T. rubrum NCPF118” value is on record as “significantly antifungal”. Besides, in data set [2], the “solubility (in words)” value is on record as “only being soluble at low concentrations” and the “DMSO Concentration” value is on record as 0.2 % v/v. Further, the solubility in data set [2] (RPMI 1640 medium with DMSO co-solvent) is 2000 µM.
Regarding `O=c1ccc2cc(OC3OC(CO)C(O)C(O)C3O)c(O)cc2o1` (stereo not drawn) [Esculin, 6,7 dihydroxycoumarin-6-glucoside], the “effect on the growth of Trichophyton rubrum NCPF118” value in data set [1] (addition of β-glucosidase and esculin, FIG. 1) is recorded as “significantly inhibits fungal growth”. Besides, the “sensitivity of older cultures of T. rubrum NCPF118” value in data set [1] (setting [6]) is “more sensitive”. Also, in data set [3] (addition of β-glucosidase and esculin, FIG. 2), the “effect on the growth of Trichophyton interdigitale NCPF335” value was “significantly inhibits fungal growth”. In data set [3] (setting [6]), the “sensitivity of older cultures of T. interdigitale NCPF335” value is listed as “more sensitive”. In data set [2], the “DMSO Concentration” value worked out at 0 % v/v and the solubility came out at 20000 µM. Further, in data set [2] (without DMSO), the “solubility in 2×RPMI 1640 solution (in words)” value is reported as “dissolves readily”. Also, the “antifungal activity against the fungi tested” value in data set [4] is given as “minimal antifungal activity”.
For the compound `COc1cc2ccc(=O)oc2c(O)c1O` [Fraxetin, 7,8 dihydroxy-6-methoxycoumarin], the minimal inhibitory concentration (MIC) in data set [1] (setting [5]) was found to be 250 µM (≈ 52 µg/mL). This compound gave an MIC in data set [3] (Trichophyton interdigitale, T. interdigitale NCPF335, 30° C.) of 500 µM (≈ 104 µg/mL). Moreover, in data set [2], the “DMSO Concentration” value was found to be 0.4 % v/v and the solubility came out at 5000 µM.
